Target: T1, GATOR2/Sestrin2 complexes (Homo sapiens, UniProt P58004)
T1 construct: endogenous in cells; host or cells: HEK293T cells stably expressing FLAG-WDR24 (lentiviral, pLJM60)
T1 sequence (P58004 1-480): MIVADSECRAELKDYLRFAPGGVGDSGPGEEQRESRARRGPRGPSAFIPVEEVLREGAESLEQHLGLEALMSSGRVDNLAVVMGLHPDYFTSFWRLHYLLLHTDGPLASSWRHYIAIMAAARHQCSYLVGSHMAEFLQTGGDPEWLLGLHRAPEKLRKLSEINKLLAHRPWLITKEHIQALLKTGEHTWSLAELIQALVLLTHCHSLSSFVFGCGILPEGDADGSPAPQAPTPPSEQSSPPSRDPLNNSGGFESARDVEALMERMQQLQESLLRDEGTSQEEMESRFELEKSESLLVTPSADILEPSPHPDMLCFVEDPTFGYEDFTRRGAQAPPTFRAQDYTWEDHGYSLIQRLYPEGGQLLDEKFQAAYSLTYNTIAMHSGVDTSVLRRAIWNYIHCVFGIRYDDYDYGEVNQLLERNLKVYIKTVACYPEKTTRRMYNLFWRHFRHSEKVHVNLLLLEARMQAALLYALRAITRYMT
Assay: In vitro PPI assay (Method 1; Western blot assay): Sestrin2 bound to GATOR2 after compound addition to immunoprecipitated FLAG-WDR24 complex
Assay type: binding
Conditions: 25 μM, % activity relative to leucine (25 μM = 100%)
Source text: This screening assay measured test compound activity in vitro on GATOR2/Sestrin2 complexes purified via immunoprecipitation of stably expressed FLAG-WDR24 from HEK293T cells. HEK293T cells (293 Ts) were engineered to stably express N-terminally tagged FLAG-WDR24 via transduction by lentivirus. Lentiviruses were produced by co-transfection of the lentiviral transfer vector pLJM60 with the […] into HEK-293T cells using the XTremeGene 9 transfection reagent (Roche Diagnostics). The media was changed 24 hours post-transfection to Dulbecco's Modified Eagle's media (DMEM) supplemented with 30% Inactivated Fetal Serum. The virus-containing supernatants were collected 48 and 72 hours after transfection and passed through a 0.45 μm filter to eliminate cells. Target cells in 6-well tissue culture plates were infected in media containing 8 μg/mL polybrene and spin infections were performed by centrifugation at 2,200 rpm for 1 hour. Twenty-four hours after infection, the virus was removed and the cells selected with the appropriate antibiotic. Cells were then grown in DMEM supplemented with 10% fetal bovine serum and antibiotics.
Seventy-two hours later, cells were placed in standard RPMI media formulated with no amino acids and supplemented with 5 mM Glucose (−AA RPMI, US Biological Life Sciences) for 1 hour then subsequently lysed in lysis buffer (40 mM HEPES, 1% Triton, 10 mM sodium β-glycerophosphate, 10 mM sodium pyrophosphate, 2.5 mM MgCl2 and protease inhibitors). To isolate the FLAG-WDR24/endogenous-Sestrin2 complex, crude lysate (equivalent to 2-4 mg of total protein) in a volume of 1 ml was subjected to immunoprecipitation with 30 μl of anti-flag resin (SIGMA) for 2 hours at 4° C., washed twice in cold lysis buffer plus 0.5M NaCl and resuspended in 1 ml of cold cytosolic buffer (40 mM HEPES pH 7.4, 140 mM KCl, 10 mM NaCl, 2.5 mM MgCl2, 0.1% TritonX-100). […] After the incubation period, samples were centrifuged to pellet the FLAG-WDR24/endogenous-Sestrin2 complex bound to the anti-flag resin, the supernatant was completely removed and resin was resuspended in SDS-PAGE sample buffer and boiled for 5 minutes. Samples were then processed by SDS-PAGE and western blots were performed with anti-FLAG (SIGMA) and anti-Sestrin2 (Cell Signaling Technology) antibodies as described in L. Chantranupong, et al., Cell Reports 9:1-8 (2014).
The resulting western blots were scanned and band intensities corresponding to Sestrin2 and FLAG-WDR24 were quantified using the LI-COR® imaging platform. To determine the amount of Sestrin2 bound to GATOR2 for each condition, the band intensity for Sestrin2 was normalized to the band intensity of FLAG-WDR24. […]
72 hours later, cells were placed in standard RPMI media formulated with no amino acids and supplemented with 5 mM Glucose (−AA RPMI, USBiological Life Sciences) for 1 hour then subsequently lysed in lysis buffer (40 mM HEPES, 1% Triton, 10 mM Sodium Beta-Glycerophosphate, 10 mM Sodium Pyrophosphate, 2.5 mM MgCl2 and protease inhibitors). The Flag-WDR24/endogenous-Sestrin2 complex was isolated as follows: crude lysate (equivalent to 2-4 mg of total protein) in a volume of 1 ml was subjected to immunoprecipitation (IP) with 30 μl of anti-flag resin (SIGMA) for 2 hours at 4° C., washed twice in cold lysis buffer plus 0.5M NaCl and resuspended in 1 ml of cold cytosolic buffer (40 mM HEPES pH 7.4, 140 mM KCl, 10 mM NaCl, 2.5 mM MgCl2, 0.1% TritonX-100). Compounds were then added to each sample at a given concentration of 25 μM and incubated with rotation at 4° C. for 30 minutes. After the incubation period, samples were centrifuged to pellet the Flag-WDR24/endogenous-Sestrin2 complex bound to the anti-flag resin, the supernatant was completely removed and resin was resuspended in sodium dodecyl sulfate-polyacrylamide gel electrophoresis (SDS-PAGE) sample buffer and boiled for 5 minutes. […]

For `CSCC[C@H](N)C(=O)O` [Compound I-30], the “Activity of Leucine: % Activity” value was “A (a % activity relative to leucine of ≥40%)”.

With `CC(C)C[C@H](N)C(=O)N1CCCC[C@@H]1C` [Compound I-153] the “Activity of Leucine: % Activity” value was “C (a % activity relative to leucine of between -40 and 40%)”.

In the case of `CN(C)[C@@H](CC(C)(C)C)C(=O)O` [Compound I-159], the “Activity of Leucine: % Activity” value is reported as “A (a % activity relative to leucine of ≥40%)”.

In the case of `CC(C)C[C@](C)(N)C(=O)O` [Compound I-32], the “Activity of Leucine: % Activity” value is reported as “A (a % activity relative to leucine of ≥40%)”.

For `CC(C)C[C@H](N)C(=O)O` [Compound I-44], the “Activity of Leucine: % Activity” value was “A (a % activity relative to leucine of ≥40%)”.

For `CN[C@@H](CC(C)C)C(=O)O.Cl` [Compound I-24], the “Activity of Leucine: % Activity” value was “A (a % activity relative to leucine of ≥40%)”.

In the case of `CC(C)C[C@@H](N)S(=O)(=O)O` [Compound I-156], the “Activity of Leucine: % Activity” value is reported as “C (a % activity relative to leucine of between -40 and 40%)”.

For `CC(C)CNC(=O)[C@@H](N)CC(C)C` [Compound I-160], the “Activity of Leucine: % Activity” value was “C (a % activity relative to leucine of between -40 and 40%)”.

`CC(C)C[C@H](N)C(=O)N(C)CC(C)C` [Compound I-152] was tested, and the “Activity of Leucine: % Activity” value was “C (a % activity relative to leucine of between -40 and 40%)”.

In the case of `N[C@H](CCCC(F)(F)F)C(=O)O` [Compound I-9, (R)-2-amino-6,6,6-trifluorohexanoic Acid], the “Activity of Leucine: % Activity” value is reported as “C (a % activity relative to leucine of between -40 and 40%)”.

With `Cl.N[C@H](CCCCC(F)(F)F)C(=O)O` [Compound I-3, (R)-2-amino-7,7,7-trifluoroheptanoic Acid Hydrochloride] the “Activity of Leucine: % Activity” value was “B (a % activity relative to leucine of ≤−40%)”.

`CC(C)C(F)(F)[C@H](N)C(=O)O` [Compound I-46, (R)-2-amino-3,3-difluoro-4-methylpentanoic Acid] was tested, and the “Activity of Leucine: % Activity” value was “C (a % activity relative to leucine of between -40 and 40%)”.

In the case of `CC(C)C[C@H](N)C(=O)N(C(C)C)C(C)C` [Compound I-150], the “Activity of Leucine: % Activity” value is reported as “C (a % activity relative to leucine of between -40 and 40%)”.

With `N[C@H](CC(C(F)(F)F)C(F)(F)F)C(=O)O` [Compound I-163] the “Activity of Leucine: % Activity” value was “A (a % activity relative to leucine of ≥40%)”.

In the case of `N[C@H](CC(F)(F)F)C(=O)O` [Compound I-5, (R)-2-amino-4,4,4-trifluorobutanoic Acid], the “Activity of Leucine: % Activity” value is reported as “B (a % activity relative to leucine of ≤−40%)”.

For `CC(C)C[C@@H](C(=O)O)N(C)C` [Compound I-1, (S)-2-(dimethylamino)-4-methylpentanoic Acid], the “Activity of Leucine: % Activity” value was “B (a % activity relative to leucine of ≤−40%)”.

For `Cl.N[C@@H](CCCCC(F)(F)F)C(=O)O` [Compound I-2, (S)-2-amino-7,7,7-trifluoroheptanoic Acid Hydrochloride], the “Activity of Leucine: % Activity” value was “B (a % activity relative to leucine of ≤−40%)”.

`CC(C)C[C@H](N)B1OC(C)(C)C(C)(C)O1` [Compound I-38] was tested, and the “Activity of Leucine: % Activity” value was “C (a % activity relative to leucine of between -40 and 40%)”.

With `CC(C)C(F)(F)[C@@H](N)C(=O)O` [Compound I-47, (S)-2-amino-3,3-difluoro-4-methylpentanoic Acid] the “Activity of Leucine: % Activity” value was “C (a % activity relative to leucine of between -40 and 40%)”.

With `CC(C)C[C@H](N)C(=O)N(C)C1CCCC1` [Compound I-162] the “Activity of Leucine: % Activity” value was “C (a % activity relative to leucine of between -40 and 40%)”.

`CC(C)C[C@H](N)C(=O)N1CCCCC1` [Compound I-151] was tested, and the “Activity of Leucine: % Activity” value was “C (a % activity relative to leucine of between -40 and 40%)”.

`CN(C)[C@@H](CC(C)(C)C)C(N)=O` [Compound I-158] was tested, and the “Activity of Leucine: % Activity” value was “C (a % activity relative to leucine of between -40 and 40%)”.

For `CC(C)C[C@H](N)C(=O)N(CC(C)C)CC(C)C` [Compound I-155], the “Activity of Leucine: % Activity” value was “C (a % activity relative to leucine of between -40 and 40%)”.

With `CC(C)(C)C[C@H](N)C(N)=O` [Compound I-48] the “Activity of Leucine: % Activity” value was “C (a % activity relative to leucine of between -40 and 40%)”.

`N[C@@H](CCCC(F)(F)F)C(=O)O` [Compound I-8, (S)-2-amino-6,6,6-trifluorohexanoic Acid] was tested, and the “Activity of Leucine: % Activity” value was “B (a % activity relative to leucine of ≤−40%)”.

For `CC(=O)N[C@@H](CC(C)C)C(=O)O` [Compound I-36, (S)-2-acetamido-4-methylpentanoic Acid], the “Activity of Leucine: % Activity” value was “B (a % activity relative to leucine of ≤−40%)”.

In the case of `CC(C)C[C@H](N)C(=O)N(C)C` [Compound I-149], the “Activity of Leucine: % Activity” value is reported as “C (a % activity relative to leucine of between -40 and 40%)”.

With `CC(C)C[C@H](N)C(=O)N1CCCC[C@H]1C` [Compound I-161] the “Activity of Leucine: % Activity” value was “C (a % activity relative to leucine of between -40 and 40%)”.

`CC(C[C@@H](N)C(=O)O)C(F)(F)F` (stereo in doubt) [Compound I-146, (2R,4S)-2-amino-5,5,5-trifluoro-4-methylpentanoic Acid] was tested, and the “Activity of Leucine: % Activity” value was “A (a % activity relative to leucine of ≥40%)”.

With `CC(C)C[C@H](N)C(=O)NC(C)(C)C` [Compound I-165] the “Activity of Leucine: % Activity” value was “A to C”.

With `N[C@H](CCC(F)(F)F)C(=O)O` [Compound I-7, (R)-2-amino-5,5,5-trifluoropentanoic Acid] the “Activity of Leucine: % Activity” value was “B (a % activity relative to leucine of ≤−40%)”.
